Experimental data taken from patent US6359168B1, “Compounds derived from menthol and use as refreshing agent” (Firmenich SA, priority 1998, dated 2002).

Tests used:
Assay type in all cases: in vivo, human
expert flavourists [1] = test: Gelatin-based grapefruit confectioneries compared by expert flavourists under blind conditions; conditions: 0.05% by weight in gelatin-based grapefruit confectionery
Method: By a method which is known per se, grapefruit-flavoured confectioneries were prepared from 30 g gelatin, 175 g water, 150 g sugar and 200 g glucose. We then added 0.8% citric acid and 0.08% of a grapefruit flavouring of the formula given in Example 6. Under blind conditions, expert flavourists then compared this base preserve, without any additives, with preserve of the same composition to which certain compounds according to the invention had been added.

expert tasters [2] = test: Chewing gum compared by expert tasters under blind conditions; conditions: 0.4 parts by weight in chewing gum
Method: Chewing gum was prepared from a Cafosa Navada Plus T 413-01chewing-gum base (18 parts by weight) (source: Cafosa Gum Products Technology, Barcelona, Spain), sugar (60 parts by weight, glucose (20 parts by weight) and glycerol (0.5 parts by weight). 0.8 parts by weight of citric acid and 1 part by weight of lemon flavouring according to the formula given in Example 8 were then added to this mixture. Under blind conditions, expert tasters then compared this chewing-gum base, without any additives, with chewing gums of the same composition to which certain compounds according to the invention had been added.

buccal mucosae = test: Taste and cooling effect of the compound when tasted
expert flavourists [3] = test: Grapefruit-flavoured sweets compared by expert flavourists under blind conditions; conditions: 0.05% in grapefruit-flavoured sweets
Method: Grapefruit-flavoured sweets were prepared from boiled sugar, 1% citric acid, and 0.05% of a grapefruit flavouring of the following formula: Under blind conditions, expert flavourists then compared these sweets, without any additives, with sweets of the same composition to which certain compounds according to the invention had been added.

expert flavourists [4] = test: Lemon sorbets compared by expert flavourists under blind conditions; conditions: 0.05% by weight in lemon sorbet
Method: Lemon sorbets were prepared from the following ingredients using conventional techniques: 0.5% citric acid and 0.01% of lemon flavouring of the following formula were then added: Under blind conditions, expert flavourists then compared this lemon sorbet, without any additives, with sorbets of the same composition to which certain compounds according to the invention had been added.

expert tasters [5] = test: Orange drink compared by expert tasters under blind conditions; conditions: 0.003% in orange drink
Method: An orange-flavoured drink was prepared from a 65° Brix syrup which had been diluted to 10%, acidified with 1.5% citric acid and then flavoured with 0.01% of an orange flavouring of the following formula: Under blind conditions, expert tasters then compared this base drink, without any additives, with drinks of the same composition to which certain compounds according to the invention had been added.

COCCOCC(=O)O[C@@H]1C[C@H](C)CC[C@H]1C(C)C [(1R,2S,5R)-3-menthyl 3,6-dioxaheptanoate]
freshness (expert flavourists [1]): the same freshness effect | freshness (expert tasters [2]): prolonged freshness

CC(C)[C@@H]1CC[C@@H](C)C[C@H]1OC(=O)COCCO [(1R,2S,5R)-3-menthyl (2-hydroxyethoxy)acetate]
cooling effect (buccal mucosae): immediately and intensely cooling

COCC(=O)O[C@@H]1C[C@H](C)CC[C@H]1C(C)C [(1R,2S,5R)-3-menthyl methoxyacetate, (1R,2S,5R)-3-methyl methoxyacetate]
freshness (expert flavourists [3]): yielded a freshness | freshness (expert flavourists [1]): leaves a freshness in the mouth | freshness (expert flavourists [4]): pleasant freshness in the mouth | freshness (expert tasters [2]): prolonged freshness | freshness (expert tasters [5]): sensation of freshness which develops as an after-taste

CC(C)[C@@H]1CC[C@@H](C)C[C@H]1OC(=O)COCCOCCOCCO [(1R,2S,5R)-menthyl 11-hydroxy-3,6,9-trioxaundecanoate]
cooling effect (buccal mucosae): develops more particularly on the tongue and in the throat
